This note sets out measurements from patent US11370776B2, “Sulfonylureas and sulfonylthioureas as NLRP3 inhibitors” (Inflazome Limited, priority 2017, dated 2022).

Experiment [1] concerns the target T1, NLRP3 (Homo sapiens, UniProt Q96P20). The experiment can be described thus: THP-1 cells pyroptosis assay. Particulars: for pIC50: 1.0 μg/ml LPS, nigericin 5 μM, pyroptosis read with resazurin; for NLRP3 inhibitory activity (in words): THP-1 pyroptosis assay. Type of experiment: cell-based. Set-up: Seed THP-1 cells (25,000 cells/well) containing 1.0 μg/ml LPS; host or cells: THP-1 cells, LPS-primed, nigericin-stimulated. As for the experimental part:
The cells were routinely passaged and grown to confluency (˜10^6 cells/ml). On the day of the experiment, THP-1 cells were harvested and resuspended into RPMI medium (without FBS). The cells were then counted and viability (>90%) checked by Trypan blue (Sigma # T8154). […] To this diluted cell solution was added LPS (Sigma # L4524) to give a 1 μg/ml Final Assay Concentration (FAC). 40 μl of the final preparation was aliquoted into each well of a 96-well plate. The plate thus prepared was used for compound screening. THP-1 Cells Pyroptosis Assay The following method step-by-step assay was followed for compound screening. • 1. […] Add 5 μl nigericin (Sigma # N7143) (FAC 5 μM) to all wells • 5. […] At the end of the incubation period, spin plates at 300×g for 3 mins and remove supernatant • 7. Then add 50 μl of resazurin (Sigma # R7017) (FAC 100 μM resazurin in RPMI medium without FBS) and incubate plates for a further 1-2 hrs at 37° C. and 5% CO2 • 8. […] IC50 data is fitted to a non-linear regression equation (log inhibitor vs response-variable slope 4-parameters) [table]
(In general: Alamar Blue is a resazurin reagent that responds to reducing activity.)

The target of experiment [2] is T1, NLRP3. As to the kind of experiment: Human whole blood IL1β release assay. It counts as cell-based. Set-up: Human whole blood in Li-heparin tubes was obtained from healthy donors; from tissue; host or cells: human whole blood from healthy donors, LPS-primed, nigericin-stimulated. As for the experimental part: Human Whole Blood IL1β Release Assay
For systemic delivery, the ability to inhibit NLRP3 when the compounds are present within the bloodstream is of great importance. For this reason, the NLRP3 inhibitory activity of a number of compounds in human whole blood was investigated in accordance with the following protocol.
Human whole blood in Li-heparin tubes was obtained from healthy donors from a volunteer donor panel. • 1. […] Incubate for 3 hrs at 37° C., 5% CO2 • 4. Add 10 μl Nigericin (Sigma # N7143) (10 μM FAC) to all wells • 5. Incubate for 1 hr at 37° C., 5% CO2 • 6. At the end of the incubation period, spin plates at 300×g for 5 mins to pellet cells and remove 20 μl of supernatant and add to 96-well v-bottom plates for IL-1β analysis (note: these plates containing the supernatants can be stored at −80° C. to be analysed at a later date) • 7. IL-1β was measured according to the manufacturer protocol (Perkin Elmer-AlphaLisa IL-1 Kit AL220E-5000) • 8. IC50 data is fitted to a non-linear regression equation (log inhibitor vs response-variable slope 4-parameters)

[3] abbreviates: THP-1 cells, read-out: THP IC50.
Where [4] appears, read: human whole blood, 1 μg/ml LPS, nigericin 10 μM, IL-1β release, read-out: HWB IC50.

Molecules are shown by their SMILES. pIC50: −log10 of the molar value. Structures can show the parent of a compound that is named as a salt.

T1 sequence (Q96P20 whole entry): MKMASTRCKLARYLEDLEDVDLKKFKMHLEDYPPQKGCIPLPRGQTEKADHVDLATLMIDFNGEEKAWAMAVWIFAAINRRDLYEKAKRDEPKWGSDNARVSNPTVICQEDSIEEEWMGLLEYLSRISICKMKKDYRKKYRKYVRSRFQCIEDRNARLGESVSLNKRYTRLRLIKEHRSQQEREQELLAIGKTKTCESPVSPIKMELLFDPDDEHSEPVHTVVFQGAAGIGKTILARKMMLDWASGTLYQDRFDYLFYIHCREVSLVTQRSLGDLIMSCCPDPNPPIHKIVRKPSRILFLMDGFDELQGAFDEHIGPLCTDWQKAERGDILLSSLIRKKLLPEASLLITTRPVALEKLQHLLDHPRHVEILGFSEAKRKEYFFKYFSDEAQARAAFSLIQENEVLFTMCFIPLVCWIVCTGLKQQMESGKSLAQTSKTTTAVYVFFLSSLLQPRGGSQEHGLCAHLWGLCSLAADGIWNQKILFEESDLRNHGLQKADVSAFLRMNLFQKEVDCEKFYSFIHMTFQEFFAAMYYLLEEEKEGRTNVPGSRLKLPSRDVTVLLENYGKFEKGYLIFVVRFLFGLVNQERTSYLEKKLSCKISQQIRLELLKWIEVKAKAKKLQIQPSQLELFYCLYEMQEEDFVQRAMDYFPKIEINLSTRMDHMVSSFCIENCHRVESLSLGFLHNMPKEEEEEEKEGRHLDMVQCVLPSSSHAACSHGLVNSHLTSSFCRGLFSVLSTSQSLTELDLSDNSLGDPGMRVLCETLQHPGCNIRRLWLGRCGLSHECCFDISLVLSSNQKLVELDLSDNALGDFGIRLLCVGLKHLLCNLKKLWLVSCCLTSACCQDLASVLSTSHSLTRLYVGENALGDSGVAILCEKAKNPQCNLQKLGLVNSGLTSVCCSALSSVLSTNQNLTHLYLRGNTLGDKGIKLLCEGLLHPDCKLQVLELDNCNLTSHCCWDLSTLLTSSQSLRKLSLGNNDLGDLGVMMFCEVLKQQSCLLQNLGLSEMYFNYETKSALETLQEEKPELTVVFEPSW

A word on the pIC50: it is the IC50 on a negative log10 scale, so that one unit is a factor of ten. Regarding `CC(C)c1cccc(C(C)C)c1NC(=O)NS(=O)(=O)c1cccnn1` [Example 7, N-((2,6-Diisopropylphenyl)carbamoyl)pyridazine-3-sulfonamide, Sodium Salt], the negative-log IC50 (pIC50) on NLRP3 [1] (setting [3]) was above 5.00; at NLRP3 [2] (setting [4]), above 5.60.

In the case of `COc1nccnc1S(=O)(=O)NC(=O)Nc1c2c(cc3c1CCC3)CCC2` [Example 8, N-((1,2,3,5,6,7-Hexahydro-s-indacen-4-yl)carbamoyl)-3-methoxypyrazine-2-sulfonamide, Potassium Salt], the pIC50 at NLRP3 [1] (setting [3]) is above 6.10; on NLRP3 [2] (setting [4]) it was above 5.30.

With `Nc1ncc(S(=O)(=O)NC(=O)Nc2c3c(cc4c2CCC4)CCC3)cn1` [Example 9, 2-Amino-N-((1,2,3,5,6,7-hexahydro-s-indacen-4-yl)carbamoyl) pyrimidine-5-sulfonamide, Potassium Salt], the pIC50 on NLRP3 [1] (setting [3]) was above 5.70; at NLRP3 [2] (setting [4]), above 5.60.

Take `O=C(Nc1c2c(cc3c1CCC3)CCC2)NS(=O)(=O)c1cncnc1` [Example 10, N-((1,2,3,5,6,7-Hexahydro-s-indacen-4-yl)carbamoyl) pyrimidine-5-sulfonamide, Potassium Salt]: the pIC50 was above 5.00 on NLRP3 [1] (setting [3]) and above 5.12 on NLRP3 [2] (setting [4]).

With `Cc1ccnc(S(=O)(=O)NC(=O)Nc2c3c(cc4c2CCC4)CCC3)n1` [Example 17, N-((1,2,3,5,6,7-Hexahydro-s-indacen-4-yl)carbamoyl)-4-methyl pyrimidine-2-sulfonamide, Potassium Salt], the pIC50 on NLRP3 [1] (setting [3]) was above 5.92; on NLRP3 [2] (setting [4]), above 5.30.

As for `Cc1cc(C)nc(S(=O)(=O)NC(=O)Nc2c3c(cc4c2CCC4)CCC3)n1` [Example 18, N-((1,2,3,5,6,7-Hexahydro-s-indacen-4-yl)carbamoyl)-4,6-dimethyl pyrimidine-2-sulfonamide, Potassium Salt], the pIC50 at NLRP3 [1] (setting [3]) is above 6.10; at NLRP3 [2] (setting [4]), above 5.60. In addition, at NLRP3 [1], the “NLRP3 inhibitory activity (in words)” value is “highly active”.

For `CN(C)c1cncc(S(=O)(=O)NC(=O)Nc2c3c(cc4c2CCC4)CCC3)n1` [Example 27, 6-(Dimethylamino)-N-((1,2,3,5,6,7-hexahydro-s-indacen-4-yl)carbamoyl)pyrazine-2-sulfonamide, Potassium Salt], the pIC50 is above 6.10 at NLRP3 [1] (setting [3]) and above 5.12 at NLRP3 [2] (setting [4]).

As to `CN(C)c1cncc(S(=O)(=O)NC(=O)Nc2c(-c3ccncc3)cc(F)c3c2CCC3)n1` [Example 37, 6-(Dimethylamino)-N-((7-fluoro-5-(pyridin-4-yl)-2,3-dihydro-1H-inden-4-yl)carbamoyl)pyrazine-2-sulfonamide], the results for the pIC50 on NLRP3 [1] (setting [3]) and on NLRP3 [2] (setting [4]) were above 6.10 and above 5.60, respectively.

Consider `CC(C)c1cc(F)cc(-c2ccnc(C#N)c2)c1NC(=O)NS(=O)(=O)c1cnc(N(C)C)cn1` [Example 38, N-((2-(2-Cyanopyridin-4-yl)-4-fluoro-6-isopropylphenyl)carbamoyl)-5-(dimethylamino)pyrazine-2-sulfonamide], for which the pIC50 at NLRP3 [1] (setting [3]) was above 6.10; on NLRP3 [2] (setting [4]), above 5.60.

In the case of `COc1cc(-c2ccc3c(c2NC(=O)NS(=O)(=O)c2cnc(N(C)C)cn2)CCC3)ccn1` [Example 40, 5-(Dimethylamino)-N-((5-(2-methoxypyridin-4-yl)-2,3-dihydro-1H-inden-4-yl)carbamoyl)pyrazine-2-sulfonamide], the pIC50 on NLRP3 [1] (setting [3]) is above 6.10; on NLRP3 [2] (setting [4]) it was above 5.60.

Take `O=C(Nc1c(-c2ccncc2)cc(F)c2c1CCC2)NS(=O)(=O)c1nccnc1C(F)F` [Example 45, 3-(Difluoromethyl)-N-((7-fluoro-5-(pyridin-4-yl)-2,3-dihydro-1H-inden-4-yl)carbamoyl)pyrazine-2-sulfonamide]: on NLRP3 [1] (setting [3]), the pIC50 is above 5.00.

`Cc1cc(C)nc(S(=O)(=O)NC(=O)Nc2c(-c3ccnc(C#N)c3)cc(F)cc2C(C)C)n1` [Example 46, N-((2-(2-Cyanopyridin-4-yl)-4-fluoro-6-isopropylphenyl)carbamoyl)-4,6-dimethylpyrimidine-2-sulfonamide]: the pIC50 at NLRP3 [1] (setting [3]) is above 6.10; on NLRP3 [2] (setting [4]), above 5.60. In addition, the “NLRP3 inhibitory activity (in words)” value at NLRP3 [1] was “highly active”.

Regarding `COc1cc(-c2cc(F)cc(C(C)C)c2NC(=O)NS(=O)(=O)c2nc(C)cc(C)n2)ccn1` [Example 47, N-((4-Fluoro-2-isopropyl-6-(2-methoxypyridin-4-yl)phenyl)carbamoyl)-4,6-dimethylpyrimidine-2-sulfonamide], on NLRP3 [1] (setting [3]), the pIC50 was above 6.10. Moreover, at NLRP3 [1], the “NLRP3 inhibitory activity (in words)” value is recorded as “highly active”.

As to `COc1cc(-c2ccc3c(c2NC(=O)NS(=O)(=O)c2nc(C)cc(C)n2)CCC3)ccn1` [Example 48, N-((5-(2-Methoxypyridin-4-yl)-2,3-dihydro-1H-inden-4-yl)carbamoyl)-4,6-dimethylpyrimidine-2-sulfonamide], the pIC50 at NLRP3 [1] (setting [3]) is above 6.10; on NLRP3 [2] (setting [4]), above 5.60. Further, the “NLRP3 inhibitory activity (in words)” value on NLRP3 [1] is on record as “highly active”.

As to `Cc1cc(C)nc(S(=O)(=O)NC(=O)Nc2c(-c3ccncc3)cc(F)c3c2CCC3)n1` [Example 49, N-((7-Fluoro-5-(pyridin-4-yl)-2,3-dihydro-1H-inden-4-yl)carbamoyl)-4,6-dimethylpyrimidine-2-sulfonamide], the pIC50 was above 6.10 on NLRP3 [1] (setting [3]) and above 5.60 at NLRP3 [2] (setting [4]). On NLRP3 [1], the “NLRP3 inhibitory activity (in words)” value is recorded as “highly active”.

Regarding `CC(C)c1cc(F)cc(-c2ccnc(C#N)c2)c1NC(=O)NS(=O)(=O)c1cc(N(C)C)cnn1` [Example 50, N-((2-(2-Cyanopyridin-4-yl)-4-fluoro-6-isopropylphenyl)carbamoyl)-5-(dimethylamino) pyridazine-3-sulfonamide], the results for the pIC50 on NLRP3 [1] (setting [3]) and on NLRP3 [2] (setting [4]) were above 6.10 and above 5.60, respectively.

For the molecule `COc1cc(-c2cc(F)cc(C(C)C)c2NC(=O)NS(=O)(=O)c2cc(N(C)C)cnn2)ccn1` [Example 51, 5-(Dimethylamino)-N-((4-fluoro-2-isopropyl-6-(2-methoxypyridin-4-yl)phenyl)carbamoyl) pyridazine-3-sulfonamide], the pIC50 against NLRP3 [1] (THP IC50, THP-1 cells) is above 6.10; against NLRP3 [2] it was above 5.60.

For `COc1cc(-c2ccc3c(c2NC(=O)NS(=O)(=O)c2cc(N(C)C)cnn2)CCC3)ccn1` [Example 52, 5-(Dimethylamino)-N-((5-(2-methoxypyridin-4-yl)-2,3-dihydro-1H-inden-4-yl)carbamoyl) pyridazine-3-sulfonamide], the negative-log IC50 (pIC50) on NLRP3 [1] (setting [3]) is above 6.10; at NLRP3 [2] (setting [4]) it was above 5.60.

On to `CN(C)c1cnnc(S(=O)(=O)NC(=O)Nc2c(-c3ccncc3)cc(F)c3c2CCC3)c1` [Example 53, 5-(Dimethylamino)-N-((7-fluoro-5-(pyridin-4-yl)-2,3-dihydro-1H-inden-4-yl)carbamoyl) pyridazine-3-sulfonamide], for which the pIC50 is above 6.10 at NLRP3 [1] (setting [3]) and above 5.60 at NLRP3 [2] (setting [4]).

On to `CN1CCN(c2cncc(S(=O)(=O)NC(=O)Nc3c4c(cc5c3CCC5)CCC4)n2)CC1` [Example 54, N-((1,2,3,5,6,7-Hexahydro-s-indacen-4-yl)carbamoyl)-6-(4-methylpiperazin-1-yl)pyrazine-2-sulfonamide, Potassium Salt], for which, on NLRP3 [1] (setting [3]), the pIC50 was above 5.70.

Turning to `Cc1cc(N(C)C)nc(S(=O)(=O)NC(=O)Nc2c3c(cc4c2CCC4)CCC3)n1` [Example 56, 4-(Dimethylamino)-N-((1,2,3,5,6,7-hexahydro-s-indacen-4-yl)carbamoyl)-6-methylpyrimidine-2-sulfonamide, potassium salt], the pIC50 at NLRP3 [1] (setting [3]) was above 6.10. At NLRP3 [1], the “NLRP3 inhibitory activity (in words)” value was “highly active”.

Regarding `CC(C)c1cc(S(=O)(=O)NC(=O)Nc2c3c(cc4c2CCC4)CCC3)ccn1` [Example 57, N-((1,2,3,5,6,7-Hexahydro-s-indacen-4-yl)carbamoyl)-2-isopropylpyridine-4-sulfonamide, Sodium Salt], the pIC50 on NLRP3 [1] (setting [3]) is above 6.10.

Regarding `COc1cc(-c2ccc3c(c2NC(=O)NS(=O)(=O)c2ccc(CN(C)C)nc2)CCC3)ccn1` [Example 58, 6-((Dimethylamino)methyl)-N-((5-(2-methoxypyridin-4-yl)-2,3-dihydro-1H-inden-4-yl)carbamoyl)pyridine-3-sulfonamide], the values for the pIC50 on NLRP3 [1] (setting [3]) and on NLRP3 [2] (setting [4]) were above 6.10 and above 5.60, respectively.
